Data published in patent publication US8933195B2, “Histone deacetylase inhibitors and synthetic method thereof and use thereof in manufacture of medicaments” (Nanjing Yoko Biomedical R & D Ltd., priority 2011, dated 2015).

Experiments:
Incap = test: MTT cancer cell growth inhibition; format: cell-based; conditions: 72 h
HDAC7 = biological target: T1, HDAC7 (Homo sapiens, UniProt Q8WUI4); test: Measurement of biochemical activities of HDAC (fluorescently-labeled acetylated lysine substrate)
T1 sequence (Q8WUI4 1-952): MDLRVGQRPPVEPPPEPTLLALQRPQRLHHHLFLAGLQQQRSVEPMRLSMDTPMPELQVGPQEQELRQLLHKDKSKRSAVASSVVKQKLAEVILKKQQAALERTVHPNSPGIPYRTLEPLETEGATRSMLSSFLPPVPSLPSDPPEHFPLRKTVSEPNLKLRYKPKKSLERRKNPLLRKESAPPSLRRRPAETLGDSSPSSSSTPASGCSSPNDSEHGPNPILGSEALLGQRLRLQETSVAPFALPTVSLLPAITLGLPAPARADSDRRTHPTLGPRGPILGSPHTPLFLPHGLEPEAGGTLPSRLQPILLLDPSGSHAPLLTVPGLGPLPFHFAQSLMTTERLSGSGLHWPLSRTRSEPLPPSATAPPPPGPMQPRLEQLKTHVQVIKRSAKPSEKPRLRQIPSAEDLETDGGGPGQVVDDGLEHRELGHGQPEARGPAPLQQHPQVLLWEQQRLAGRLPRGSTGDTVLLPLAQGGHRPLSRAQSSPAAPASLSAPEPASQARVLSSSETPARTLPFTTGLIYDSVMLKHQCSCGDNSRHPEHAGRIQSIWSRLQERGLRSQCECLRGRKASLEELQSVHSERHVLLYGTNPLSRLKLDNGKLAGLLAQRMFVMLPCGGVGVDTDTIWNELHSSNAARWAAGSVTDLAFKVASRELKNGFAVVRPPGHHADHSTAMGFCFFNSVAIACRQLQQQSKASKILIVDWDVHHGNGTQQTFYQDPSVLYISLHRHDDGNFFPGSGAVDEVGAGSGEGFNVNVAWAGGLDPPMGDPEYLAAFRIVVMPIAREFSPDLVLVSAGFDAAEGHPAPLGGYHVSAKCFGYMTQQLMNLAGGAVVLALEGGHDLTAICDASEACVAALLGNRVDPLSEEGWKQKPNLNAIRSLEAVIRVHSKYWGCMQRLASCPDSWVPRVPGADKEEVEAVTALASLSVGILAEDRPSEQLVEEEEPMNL
Method in brief: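 For both HDAC isoforms, fluorescent acetyl-lysine substrate ([…] in reaction) incubated with enzyme and compounds for 30 min at 37; developer then added for 15 min at room temperature. Fluorescence read at excitation 360 nm, emission 460 nm.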

[1] = tested on: MOLT-4 (human acute lymphoblastic leukemia cells); test: MTT cancer cell growth inhibition; format: cell-based; conditions: 72 h
Method in brief: (§1)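 Cells seeded at 1500 per well in DMEM or RPMI 1640 with 10% FBS, cultured overnight at 37 °C, 5% CO2, then exposed to compound at 10^−5–10^−10 M final (0.1% DMSO) for 72 h. MTT added for 4 h, formazan dissolved in DMSO, absorbance read at 570 nm to give survival rate.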

[2] = tested on: DU145 (human prostate cancer cells); test: MTT cancer cell growth inhibition; format: cell-based; conditions: DU-145, 72 h
Method in brief: as §1

[3] = tested on: Human Gastric Adenocarcinoma Cell BGC-823; test: Subcutaneously transplanted tumors in nude mice; format: in vivo; conditions: 20 mg/kg
Protocol: (§2) Tumor tissues in the vigorous growth period are cut into about 1.5 mm^3, and inoculated to the right axilla subcutaneous layer of the nude mice under aseptic conditions. For the subcutaneously transplanted tumors of the nude mice, the diameter of the transplanted tumors is measured by a vernier caliper. The mice are randomly grouped after the tumors grow to 100-200 mm^3. […] The diameter of the transplanted tumors is measured twice per week in the whole experimental process, and meanwhile the weight of the mice is weighed. The calculation formula of tumor volume (TV) is TV=½×a×b^2, where a and b represent length and width, respectively.
(§3) The relative tumor volume (RTV) is calculated according to the measured results, with the following calculation formula: RTV=Vt/V0, where V0 is the tumor volume obtained by measurement during administration in different cages (i.e., d0), Vt is the tumor volume obtained by measurement at each time. […] (Wc−WT)Wc×100%, where Wc is the tumor weight of the control group, and WT is the tumor weight of the treatment group.

[4] = tested on: Human Lymphoma Cell Ramos; test: Subcutaneously transplanted tumors in nude mice; format: in vivo; conditions: 20 mg/kg
Protocol: as §2, §3

Human Melanoma Cell A875 = test: Subcutaneously transplanted tumors in nude mice; format: in vivo; conditions: 20 mg/kg
Protocol: as §2, §3

[5] = tested on: Human Lung Caner Cell NCI-H1975; test: Subcutaneously transplanted tumors in nude mice; format: in vivo; conditions: 20 mg/kg
Protocol: as §2, §3

For O=C(CCCCCCC(=O)Nc1ccccc1)NO [SAHA, suberoylanilide hydroxamic acid, reference compound], which GI50 (Incap) is on record?
The GI50 was 4560 nM.

And the “IC50 HDAC7” value (HDAC7)?
The value was “no activity”.

For C/C=C1\NC(=O)c2csc(n2)CNC(=O)C[C@@H](/C=C/CCSC(=O)CCCCCCC)OC(=O)[C@H](C(C)C)NC1=O [Compound 1-3], which GI50 (Incap) is on record?
Its GI50 is 2000 nM.

What about the GI50 [1] of the same compound?
Its GI50 is 1000 nM.

What about the GI50 [2] of the same compound?
The GI50 was 300 nM.

And the “IC50 HDAC7” value (HDAC7)?
The value was “no activity”.

What about the “Tumor Inhibition Rate (1 − T/C) × 100%” value [3] of the same compound?
Its value is 59.38%.

What about the “Tumor Inhibition Rate (1 − T/C) × 100%” value [4] of the same compound?
The value was 70.08%.

What about the “Tumor Inhibition Rate (1 − T/C) × 100%” value (Human Melanoma Cell A875) of the same compound?
The value was 63.89%.

And the “Tumor Inhibition Rate (1 − T/C) × 100%” value [5]?
Its value is 56.40%.

What does the source list for C/C=C1\NC(=O)c2csc(n2)CNC(=O)C[C@@H](/C=C/CCSC(=O)CCCCCCC)OC(=O)[C@H](Cc2ccc(O)cc2)NC1=O [Compound 1-8]?
GI50 (Incap): 200 nM; GI50 [1]: 20 nM; GI50 [2]: 30 nM; IC50 HDAC7 (HDAC7): no activity; Tumor Inhibition Rate (1 − T/C) × 100% [3]: 56.83%; Tumor Inhibition Rate (1 − T/C) × 100% [4]: 58.33%; Tumor Inhibition Rate (1 − T/C) × 100% (Human Melanoma Cell A875): 68.07%; Tumor Inhibition Rate (1 − T/C) × 100% [5]: 53.23%

What does the source list for C/C=C1\NC(=O)c2csc(n2)CNC(=O)C[C@@H](/C=C/CCSC(=O)CCCCCCC)OC(=O)[C@H](Cc2ccccc2)NC1=O [Compound 1-7]?
GI50 (Incap): 500 nM; GI50 [1]: 100 nM; GI50 [2]: 20 nM; IC50 HDAC7 (HDAC7): no activity

How did the GI50 (Incap) turn out when C/C=C1\NC(=O)c2csc(n2)CNC(=O)C[C@@H](/C=C/CCSC(=O)CCCCCCC)OC(=O)[C@H](C(C)(C)C)NC1=O [Compound 1-6] was run?
The GI50 was 1200 nM.

And the GI50 [1]?
Its GI50 is 1000 nM.

What about the GI50 [2] of the same compound?
The GI50 was 50 nM.

What about the “IC50 HDAC7” value (HDAC7) of the same compound?
Its value is “no activity”.

What about the “Tumor Inhibition Rate (1 − T/C) × 100%” value [3] of the same compound?
Its value is 60.26%.

And the “Tumor Inhibition Rate (1 − T/C) × 100%” value [4]?
The value was 60.94%.

What about the “Tumor Inhibition Rate (1 − T/C) × 100%” value (Human Melanoma Cell A875) of the same compound?
The value was 66.64%.

And the “Tumor Inhibition Rate (1 − T/C) × 100%” value [5]?
Its value is 59.19%.

Which results are given for C/C=C1\NC(=O)c2csc(n2)CNC(=O)C[C@@H](/C=C/CCSC(=O)CCCCCCC)OC(=O)[C@H](C)NC1=O [Compound 1-4]?
GI50 (Incap): 200 nM; GI50 [1]: 100 nM; GI50 [2]: 360 nM; IC50 HDAC7 (HDAC7): no activity
